EPA's aquatic toxicity sets

tested on: Daphnia magna; test: 48 h LC50 (-log10 mol/L); higher = more toxic

| SMILES | 48 h LC50 (-log10 mol/L) |
| --- | --- |
| CN(C)C(=O)Nc1ccc(Oc2ccc(Cl)cc2)cc1 | 4.99 |
| Fc1ccc([C@@H]2CCNC[C@H]2COc2ccc3c(c2)OCO3)cc1 | 5.75 |
| COCC(C)O (stereo not drawn) | 0.59 |
| CN(C)C(=N)N=C(N)N | 1.98 |
| CN1C(=O)CN=C(c2ccccc2)c2cc(Cl)ccc21 | 4.82 |
| CCOP(=O)(OCC)OC(=CCl)c1ccc(Cl)cc1Cl | 6.56 |
| Clc1ccc(-c2ccccc2)cc1 | 5.63 |
| CCS | 5.56 |
| CC(C)OC(=O)Nc1cccc(Cl)c1 | 4.76 |
| O=c1ccc2ccccc2o1 | 4.03 |
| Cc1ccc(Cl)cc1[N+](=O)[O-] | 4.27 |
| CC(C)CC[C@@H](O)[C@](C)(O)[C@H]1CC[C@@]2(O)C3=CC(=O)[C@@H]4C[C@@H](O)[C@@H](O)C[C@]4(C)[C@H]3CC[C@]12C | 6.42 |
| CC(C)(Oc1ccc(Cl)cc1)C(=O)O | 3.47 |
| ClCCCCl | 2.61 |
| CCCSc1ccc2nc(NC(=O)OC)[nH]c2c1 | 7.04 |
| Cn1cc(-c2ccccc2)c(=O)c(-c2cccc(C(F)(F)F)c2)c1 | 4.9 |
| COC1=CC(=O)C[C@@H](C)[C@]12Oc1c(Cl)c(OC)cc(OC)c1C2=O | 2.51 |
| CC(C)CCCCCCCCCCN(CCCCCCCCCCC(C)C)CCCCCCCCCCC(C)C | 5.96 |
| Nc1cc(Cl)c(Cl)c(Cl)c1Cl | 5.56 |
| CCNC(=S)NCC | 2.84 |

| SMILES | 48 h LC50 (-log10 mol/L) |
| --- | --- |
| O=c1[nH]cc(F)c(=O)[nH]1 | 3.72 |
| Cc1c(OCC(F)(F)F)ccnc1CS(=O)c1nc2ccccc2[nH]1 (stereo not drawn) | 4.22 |
| CCCCCCCCCCC[C@@H](C[C@@H]1OC(=O)[C@H]1CCCCCC)OC(=O)[C@H](CC(C)C)NC=O | 4.85 |
| CSc1nc(NC2CC2)nc(NC(C)(C)C)n1 | 4.49 |
| CC(C)=CC1C(C(=O)OCc2cccc(Oc3ccccc3)c2)C1(C)C (stereo not drawn) | 7.69 |
| CNC(=O)Oc1cccc2c1OC(C)(C)O2 | 6.88 |
| Clc1ccc(-c2ccc(Cl)cc2Cl)cc1 | 6.21 |
| CCOC(=O)c1ocnc1C | 2.67 |
| Nc1nc(=S)c2[nH]cnc2[nH]1 | 4.01 |
| O=[N+]([O-])c1ccc(Cl)cc1 | 4.31 |
| C1CCNCC1 | 3.93 |
| CC(F)(Cl)Cl | 3.58 |
| CC1(C)[C@H](C(=O)O[C@H](C#N)c2cccc(Oc3ccccc3)c2)[C@@H]1C(Br)C(Br)(Br)Br (stereo partly drawn) | 9.95 |
| CCN(CC)C(=O)SCc1ccc(Cl)cc1 | 5.55 |
| COc1c(C(C)(C)C)cc([N+](=O)[O-])c(C)c1[N+](=O)[O-] | 5.64 |
| CCCCC(CC)COC(=O)CCCCC(=O)OCC(CC)CCCC (stereo not drawn) | 5.75 |
| COc1c(Cl)c(Cl)c(Cl)c(Cl)c1Cl | 7.01 |
| CCNc1nc(Cl)nc(NC(C)(C)C#N)n1 | 6.45 |
| CCCCOCCOCCOCc1cc2c(cc1CCC)OCO2 | 5.29 |
| CCCCCOC(=O)Nc1nc(=O)n([C@@H]2O[C@H](C)[C@@H](O)[C@H]2O)cc1F | 2.63 |

| SMILES | 48 h LC50 (-log10 mol/L) |
| --- | --- |
| NC(N)=Nc1nc(CSCC/C(N)=N/S(N)(=O)=O)cs1 | 2.93 |
| CCCCCCCCc1ccc(O)cc1 | 6.36 |
| Nc1cccc(Cl)c1 | 6.11 |
| CCOP(=O)(NC(C)C)Oc1ccc(SC)c(C)c1 (stereo not drawn) | 8.11 |
| FC(F)C(F)(F)OCC(Cn1cncn1)c1ccc(Cl)cc1Cl (stereo not drawn) | 4.71 |
| CC1=CCC2CC1C2(C)C (stereo not drawn) | 3.52 |
| CC(C)NCC(O)c1ccc(NS(C)(=O)=O)cc1 (stereo not drawn) | 2.96 |
| CC1CCCCC1 | 4.82 |
| O=c1cc[nH]c(=S)[nH]1 | 4.22 |
| Cc1nc2n(c(=O)c1CCN1CCC(c3noc4cc(F)ccc34)CC1)CCCC2 | 4.83 |
| CC(C)N(C(=O)SCC(Cl)=C(Cl)Cl)C(C)C | 6.46 |
| S=P(N1CC1)(N1CC1)N1CC1 | 2.54 |
| ClCCOCCCl | 2.78 |
| O=C1CN(/N=C/c2ccc([N+](=O)[O-])o2)C(=O)N1 | 3.51 |
| Oc1cc(Cl)ccc1Oc1ccc(Cl)cc1Cl | 6.11 |
| Nc1ccn([C@H]2CC[C@@H](CO)O2)c(=O)n1 | 2.07 |
| ClC=CCCl | 4.32 |
| CC[C@H]1OC(=O)[C@H](C)[C@@H](O[C@H]2C[C@@](C)(OC)[C@@H](O)[C@H](C)O2)[C@H](C)[C@@H](O[C@@H]2O[C@H](C)C[C@H](N(C)C)[C@H]2O)[C@](C)(O)C[C@@H](C)C(=O)[C@H](C)[C@@H](O)[C@]1(C)O | 3.28 |
